pIC50: −log10 of the molar value. Where a name gives a salt, the structure may show the parent alone.
Molecular target: T1, SHP2 (Homo sapiens, UniProt Q06124)
T1 sequence (Q06124 1-593): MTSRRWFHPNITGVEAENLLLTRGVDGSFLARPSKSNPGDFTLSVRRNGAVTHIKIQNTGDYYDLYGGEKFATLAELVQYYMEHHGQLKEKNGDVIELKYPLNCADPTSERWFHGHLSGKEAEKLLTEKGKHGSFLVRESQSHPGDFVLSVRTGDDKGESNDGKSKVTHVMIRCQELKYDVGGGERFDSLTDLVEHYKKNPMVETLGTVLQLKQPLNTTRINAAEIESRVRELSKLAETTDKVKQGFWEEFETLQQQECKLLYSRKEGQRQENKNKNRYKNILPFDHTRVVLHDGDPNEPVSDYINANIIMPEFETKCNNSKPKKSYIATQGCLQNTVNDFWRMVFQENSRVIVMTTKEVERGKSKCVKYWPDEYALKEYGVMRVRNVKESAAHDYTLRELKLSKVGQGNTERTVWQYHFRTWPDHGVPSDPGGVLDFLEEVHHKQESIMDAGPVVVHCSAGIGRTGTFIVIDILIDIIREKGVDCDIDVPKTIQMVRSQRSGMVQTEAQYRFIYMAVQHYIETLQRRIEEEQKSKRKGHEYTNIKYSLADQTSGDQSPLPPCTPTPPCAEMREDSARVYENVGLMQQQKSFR
Assay: SHP2 allosteric inhibition assay (DiFMUP prompt fluorescence)
Type: biochemical
Conditions: 0.25 nM SHP2, 0.5 μM IRS1_pY1172(dPEG8)pY1222 peptide, DiFMUP 100 μM
Excerpt: SHP2 Allosteric Inhibition Assay.
SHP2 is allosterically activated through binding of bis-tyrosyl-phosphorylated peptides to its Src Homology 2 (SH2) domains. The latter activation step leads to the release of the auto-inhibitory interface of SHP2, which in turn renders the SHP2 protein tyrosine phosphatase (PTP) active and available for substrate recognition and reaction catalysis. The catalytic activity of SHP2 was monitored using the surrogate substrate DiFMUP in a prompt fluorescence assay format.
The inhibitor dose response curves were analyzed using normalized IC50 regression curve fitting with control based normalization.

Compound	pIC50 (Table 3)	other results
COc1ccc(-c2nc(CSc3nnc(NCC4CCCO4)s3)cs2)cc1OC (stereo not drawn) [Compound C19]	3.00 to 3.30	
Nc1c(-c2cccc(Cl)c2Cl)nc2sc(N3CCNCC3)nn12 [Compound A12, 6-(2,3-dichlorophenyl)-2-(piperazin-1-yl)imidazo[2,1-b][1,3,4]thiadiazol-5-amine]		pIC50 (Table 1): < 4.70
CC1(CN)CCN(c2nn3cc(-c4cccc(Cl)c4Cl)nc3s2)CC1 [Compound A2, (1-(6-(2,3-dichlorophenyl)imidazo[2,1-b][1,3,4]thiadiazol-2-yl)-4-methylpiperidin-4-yl)methanamine formate]		pIC50 (Table 1): 4.70 to 5.30
COc1ccc(-c2nc(CSc3nncn3-c3ccccc3)cs2)cc1OC [Compound C29]	< 3.00	
Clc1ccc(-c2nc(CSc3nncs3)cs2)cc1 [Compound C27]	< 3.00	
CCOc1ccc(-c2nc(CSc3nncs3)cs2)cc1OC [Compound C23]	< 3.00	
CC1(CN)CCN(c2cnn3c(-c4ccccc4Cl)coc23)C1 (stereo not drawn) [Compound E2, (1-(3-(2-chlorophenyl)pyrazolo[5,1-b]oxazol-7-yl)-3-methylpyrrolidin-3-yl)methanamine]		pIC50 (Table 5): > 4.30
Cn1c(N2CCC(C)(CN)CC2)nc2[nH]nc(Sc3cccc(Cl)c3Cl)c2c1=O [Compound F7, 6-(4-(aminomethyl)-4-methylpiperidin-1-yl)-3-((2,3-dichlorophenyl)thio)-5-methyl-1H-pyrazolo[3,4-d]pyrimidin-4(5H)-one hydrochloride]		pIC50 (Table 6): > 6.00
C=C(C)CSc1nnc(SCc2csc(-c3ccc(OC)c(OC)c3)n2)s1 [Compound C33]	< 3.00	
CC1(N)CCN(c2nc(N)c(-c3cccc(Cl)c3Cl)s2)CC1 [Compound B1, 2-(4-amino-4-methyl-1-piperidyl)-5-(2,3-dichlorophenyl)thiazol-4-amine, dihydrochloride]		pIC50 (Table 2): > 4.00
c1coc(-c2nc(CSc3nncs3)cs2)c1 [Compound C8]	3.00 to 3.30	
Cn1cnnc1SCc1csc(-c2ccc3c(c2)OCO3)n1 [Compound C26]	< 3.00	
CC1(N)CCN(c2nn3c(N)c(-c4cccc(Cl)c4Cl)nc3s2)CC1 [Compound A4, 2-(4-amino-4-methylpiperidin-1-yl)-6-(2,3-dichlorophenyl)imidazo[2,1-b][1,3,4]thiadiazol-5-amine formate]		pIC50 (Table 1): < 4.70
Cn1c(N2CCC(C)(CN)CC2)nc2[nH]nc(N3CCc4ccccc43)c2c1=O [Compound F4, 6-(4-(aminomethyl)-4-methylpiperidin-1-yl)-3-(indolin-1-yl)-5-methyl-1H-pyrazolo[3,4-d]pyrimidin-4(5H)-one]		pIC50 (Table 6): > 6.00
CC1(CN)CCN(c2ncc(-c3ccccc3Cl)s2)C1 (stereo not drawn) [Compound B3, (1-(5-(2-chlorophenyl)thiazol-2-yl)-3-methylpyrrolidin-3-yl)methanamine formate]		pIC50 (Table 2): < 4.00
Cc1cc2occ(-c3ccccc3Cl)n2n1 [Compound E3, 3-(2-chlorophenyl)-6-methylpyrazolo[5,1-b]oxazole]		pIC50 (Table 5): < 4.00
CC1(CN)CCN(c2nn3c(N)c(-c4cccc(Cl)c4Cl)nc3s2)CC1 [Compound A9, 2-(4-(aminomethyl)-4-methylpiperidin-1-yl)-6-(2,3-dichlorophenyl)imidazo[2,1-b][1,3,4]thiadiazol-5-amine formate]		pIC50 (Table 1): 4.70 to 5.30

Compound	pIC50 (Table 3)	other results
COc1ccc(-c2nc(CSc3nnc(C4CC4)n3N)cs2)cc1OC [Compound C10]	3.00 to 3.30	
c1cc(-c2nc(CSc3nncs3)cs2)co1 [Compound C24]	< 3.00	
c1ccc(-c2nc(CSc3nncs3)cs2)cc1 [Compound C40]	< 3.00	
COc1cc(-c2nc(CSc3nncn3C)cs2)ccc1O [Compound C20]	> 3.30	
COc1ccc(-c2nc(CSc3nc4nc(C)cc(C)n4n3)cs2)cc1OC [Compound C32]	< 3.00	
COc1cc(-c2nc(CN(C)c3ccc4c(c3)OCO4)cs2)ccc1O [Compound C11]	> 3.30	
COc1ccc(-c2nc(CSc3nnnn3C3CC3)cs2)cc1OC [Compound C25]	< 3.00	
O=c1c2[nH]nc(-c3cccc(Cl)c3Cl)c2ncn1C1CCNCC1 [Compound F5, 3-(2,3-dichlorophenyl)-6-(piperidin-4-yl)-1H-pyrazolo[4,3-d]pyrimidin-7(6H)-one]		pIC50 (Table 6): 4.70 to 6.00
COc1ccc(-c2nc(CSc3nnnn3C)cs2)cc1OC [Compound C6]	3.00 to 3.30	
Clc1ccccc1-c1coc2ccnn12 [Compound E4, 3-(2-chlorophenyl)pyrazolo[5,1-b]oxazole]		pIC50 (Table 5): < 4.00
CCOc1ccc(-c2nc(CSc3nnc(C)s3)cs2)cc1OC [Compound C36]	< 3.00	
NC1CCCN(C(=O)c2cnc(-c3ccc(C(F)(F)F)cc3)s2)CC1 (stereo not drawn) [Compound C48]	< 3.00	
NCC1CCN(C(=O)c2csc(-c3ccccc3F)n2)C1 (stereo not drawn) [Compound C49]	< 3.00	
COc1cc(-c2nc(CSc3nnc(-c4ccc(C)cc4C)o3)cs2)ccc1O [Compound C34]	< 3.00	
c1nnc(SCc2csc(-c3ccc4c(c3)OCO4)n2)s1 [Compound C13]	> 3.30	
Cc1ccc(-c2nc(C)c(C(=O)N3CCC(CN)C3)s2)c(C)c1 (stereo not drawn) [Compound C47]	< 3.00	
